System: SPX1
Assay: Chemical activity assessment: SPX1 phosphate starvation biomarker, pSPX1::GUS reporter line, GUS stained area
Type: in vivo, Arabidopsis thaliana
Settings: Table 3; 50 µM compound, low phosphate modMS liquid medium, 7 days after germination; low phosphate control average of the same plate
Procedure: All Arabidopsis plant experiments were performed using the Arabidopsis thaliana Columbia-0 background. The Arabidopsis pSPX1::GUS line is described in the […] 2008, 54: 965-975. For rice, the cultivar Nipponbare was used. For maize, the cultivars DKC 2931 and B104 were used for regular pot experiments and sand-based pot experiments, respectively. For soybean, the cultivar Primus was used. […] The medium was solidified due to the addition of 0,6% Gelrite, unless stated otherwise. In case of vertical plates (root length and root hair measurements), the medium was supplied with 0.5% of sucrose and 1 µM (low phosphate, 1 µM KH2PO4, 9.9 mM KCI), 10 µM (low phosphate 10 µM KH2PO4, 9.9 mM KCI) or 1.25 mM KH2PO4 (high phosphate). Arabidopsis seeds were stratified for 2 days at 4 °C before germination. Seedlings were germinated in climate-controlled growth chambers at 22 °C under continuous light (100 µmol m^-2 s^-1). Husked rice seeds were germinated on wetted Whatman paper for 2 days at 37 °C and then transferred to Sterivent boxes or square Petri dishes with solid medium. Maize and soybean seeds were wetted 24 hours at room temperature prior to sowing in pots.
For the chemical activity assessment 3 to 8 seeds per well of Arabidopsis pSPX1::GUS line were sown in 96-well plates containing 150 µl of low phosphate modMS liquid medium containing 1% of sucrose. Compounds were added in 50 µM concentration, starting from a 5 mM stock of compounds solved in DMSO. Different chemical substances were separately added to different wells. Per plate, 16 control wells were used, 8 containing only the low phosphate medium and 1% DMSO, and 8 containing high phosphate medium and 1% DMSO. 7 days after germination, plates were scanned using a flatbed scanner (EPSON Expression 11000XL) and analyzed for leaf size. After scanning, the growth medium was replaced by GUS staining solution (see Plant Mol. Biol. Rep. 1994, 12: 37-42 for details) and incubated for 1.5 hours at 37 °C. The plates were scanned a second time and analyzed for GUS signal area. Measurements of both leaf area and GUS signal area were conducted by filtering out and measure the green and blue signal, respectively using ImageJ software. If the green leaf area was 50% or less than the control, samples were omitted. Additionally, all results were visually screened for leaf size and GUS signal.

Compound | GUS (SPX1) stained area normalized to the number of seeds (pixels)
C(=C\c1cc2ccccc2nc1N1CCOCC1)/c1nc2ccccc2s1 | 0
CN(CC1COc2ccccc2O1)c1ccc(S(=O)(=O)N2CCOCC2)cn1 (stereo not drawn) | 0
Cc1cnc(CN2CCOC(c3nc(C(C)C)n[nH]3)C2)o1 (stereo not drawn) | 7
O=C(COn1nnc2ccc(Cl)cc21)Nc1cc(S(=O)(=O)N2CCOCC2)ccc1Cl | 7
CCN(CC)S(=O)(=O)c1ccc(N2CCOCC2)c(NC(=O)c2ccccc2OC)c1 | 7
CC(C)(C)Nc1nn(CN2CCOCC2)c(=S)s1 | 7
CC(C)CC1COCCN1C(=O)Nc1nnc(C(F)(F)F)s1 (stereo not drawn) | 7
CC1CN(C(C)(C)CNC(=O)C2CCCN2C2CCN(CC(F)(F)F)CC2)CC(C)O1 (stereo not drawn) | 7
O=C(NCc1ccccc1CS(=O)(=O)N1CCOCC1)c1ccc([N+](=O)[O-])cc1 | 7
COCC(C)Nc1ccc(N2CCOC(C)(C)C2)cc1OC (stereo not drawn) | 7
O=C(Nc1sc2c(c1C(=O)N1CCOCC1)CCCC2)C1CCCc2ccccc21 (stereo not drawn) | 8
O=C(Nc1ccc(F)c(C(F)(F)F)c1)N1CCOCC1 | 8
O=C(NC1COc2ccccc21)N1CCOC(c2ccc(Cl)cc2)C1 (stereo not drawn) | 8
COc1cc(C(C)=O)ccc1OC(=O)N1CCOCC1 | 8
CC1CN(Cn2nc(-c3cccs3)nc2S)C(C)CO1 (stereo not drawn) | 9
CC(c1nc(C(C)(C)C)no1)N1CCOC(c2ccccc2)C1 (stereo not drawn) | 9
CC(C)Cn1c(SCC(=O)c2ccc(Br)s2)nnc1N1CCOCC1 | 9
O=S(=O)(CCN1CCOC2CCCCC21)c1cc(Cl)ccc1Cl (stereo not drawn) | 9

From patent EP4111863A1, “PHOSPHORUS USE EFFICIENCY ENHANCERS AS PLANT GROWTH PROMOTORS” (EuroChem Antwerpen, priority 2021, dated 2023)
